# Measured values: patent US20260070887A1 (Shenzhen Zhongge Biological Technology Co., Ltd., priority 2022, published 2026)
# pIC50: −log10 of the molar value.
# How the values were obtained:
# OVCAR-3 cells = test: OVCAR-3 cell proliferation (Cell Titer-Glo, 10 days); type: cell-based, human; conditions: Homo sapiens, OVCAR-3, 240 h
# Protocol: The inhibitory effect on the KIF18A target by the compounds of the present disclosure was evaluated by testing the inhibitory effect on proliferation of OVCAR-3 cells by the compounds of the present disclosure.
# The following method was used to determine the effect of the compounds of the present disclosure on the proliferation of human ovarian cancer cells Ovcar-3 (HTB-161, ATCC). Cells were cultured in RPMI-1640 complete medium containing 20% fetal bovine serum, 0.01 mg/mL bovine insulin, 100 U penicillin, and 100 μg/mL streptomycin. The Promega kit Cell Titer-Glo (Cat. No. G7572) was used in this method for test.
# For specific steps, reference was made to the kit instructions, and the procedure was outlined below: Test compounds were dissolved in DMSO to prepare a 10 mM stock solution, which was diluted at the predetermined test concentrations, and the test compounds at different concentrations were added to a 384-well cell test plate using ECHO. In the plate pre-added with the test compounds, 400 OVCAR-3 cells in the logarithmic growth phase were seeded per well, ensuring the final concentration of the test compounds in the reaction system ranged between 0.12 nM and 10 μM. The co-culture was maintained in a cell culture incubator for 10 days. Before testing, the cell culture plate was equilibrated for 10 minutes at room temperature, 25 μL of Cell Titer-Glo was added to each well, and the mixture was shaken and mixed well and let stand for 5 minutes. The luminescence values for samples in various wells were read using a microplate reader in Luminescence mode.
# The percentage of inhibition of cell proliferation by the test compound at each concentration was calculated by comparing with the values of the control group (0.1% DMSO). The IC50 values of the compounds were obtained by concentration-inhibition rate nonlinear regression analysis of the test compounds using GraphPad Prism 9.
# KIF18A = KIF18A (Homo sapiens (Human), UniProt Q8NI77); test: KIF18A ATPase activity under tubulin stimulation (ADP-Glo assay); type: biochemical; conditions: KIF18A 30 nM, ATP 150 μM, pig microtubules
# Sequence of KIF18A (Q8NI77 whole entry): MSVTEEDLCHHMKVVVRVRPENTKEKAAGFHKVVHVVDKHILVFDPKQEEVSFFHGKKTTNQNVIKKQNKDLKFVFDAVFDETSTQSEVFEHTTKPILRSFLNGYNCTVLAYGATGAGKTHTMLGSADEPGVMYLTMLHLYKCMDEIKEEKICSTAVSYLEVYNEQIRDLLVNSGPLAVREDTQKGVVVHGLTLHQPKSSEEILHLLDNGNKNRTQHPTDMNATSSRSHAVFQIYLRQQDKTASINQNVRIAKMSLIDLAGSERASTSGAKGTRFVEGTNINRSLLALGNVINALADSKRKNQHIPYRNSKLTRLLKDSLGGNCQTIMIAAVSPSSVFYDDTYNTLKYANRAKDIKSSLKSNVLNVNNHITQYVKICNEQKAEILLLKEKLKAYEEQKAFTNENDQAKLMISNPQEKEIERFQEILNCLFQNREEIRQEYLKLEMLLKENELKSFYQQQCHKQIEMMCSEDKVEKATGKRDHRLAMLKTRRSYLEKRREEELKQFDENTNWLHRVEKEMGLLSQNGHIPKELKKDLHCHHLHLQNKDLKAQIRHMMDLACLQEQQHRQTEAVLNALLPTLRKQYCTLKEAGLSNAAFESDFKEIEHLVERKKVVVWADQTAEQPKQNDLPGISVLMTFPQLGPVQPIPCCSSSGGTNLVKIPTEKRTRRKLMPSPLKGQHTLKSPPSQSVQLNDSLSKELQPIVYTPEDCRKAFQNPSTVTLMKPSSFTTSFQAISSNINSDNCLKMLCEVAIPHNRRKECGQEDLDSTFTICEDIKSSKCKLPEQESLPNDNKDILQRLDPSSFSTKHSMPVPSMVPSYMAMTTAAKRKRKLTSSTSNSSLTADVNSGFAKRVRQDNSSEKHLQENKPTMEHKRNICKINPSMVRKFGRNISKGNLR
# Sequence of KIF18A (P02550 whole entry partner): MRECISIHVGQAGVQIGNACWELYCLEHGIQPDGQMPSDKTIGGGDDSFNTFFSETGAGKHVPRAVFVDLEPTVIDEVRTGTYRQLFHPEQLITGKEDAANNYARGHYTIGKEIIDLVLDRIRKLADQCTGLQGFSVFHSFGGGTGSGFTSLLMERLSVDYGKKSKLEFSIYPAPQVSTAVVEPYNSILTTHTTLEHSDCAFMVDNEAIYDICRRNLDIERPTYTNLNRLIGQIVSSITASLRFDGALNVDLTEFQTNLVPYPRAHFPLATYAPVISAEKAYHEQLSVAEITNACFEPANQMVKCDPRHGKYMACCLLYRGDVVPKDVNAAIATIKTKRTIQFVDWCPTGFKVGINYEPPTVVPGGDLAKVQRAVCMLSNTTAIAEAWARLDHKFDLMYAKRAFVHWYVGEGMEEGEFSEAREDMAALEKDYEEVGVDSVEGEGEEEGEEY
# Sequence of KIF18A (P02554 whole entry partner): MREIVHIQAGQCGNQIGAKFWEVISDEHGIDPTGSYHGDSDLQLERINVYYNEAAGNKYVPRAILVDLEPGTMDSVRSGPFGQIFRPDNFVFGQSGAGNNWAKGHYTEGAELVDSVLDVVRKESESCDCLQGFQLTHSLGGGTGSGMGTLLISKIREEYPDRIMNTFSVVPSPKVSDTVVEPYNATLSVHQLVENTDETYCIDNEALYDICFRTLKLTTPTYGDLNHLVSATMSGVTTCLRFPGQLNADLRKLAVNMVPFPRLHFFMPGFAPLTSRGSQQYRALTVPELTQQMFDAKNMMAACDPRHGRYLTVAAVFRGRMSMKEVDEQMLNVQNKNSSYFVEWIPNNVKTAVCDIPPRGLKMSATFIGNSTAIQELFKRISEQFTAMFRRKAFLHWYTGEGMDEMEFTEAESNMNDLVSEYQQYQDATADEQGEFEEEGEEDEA
# Protocol: This experiment assesses the inhibitory effect of the compounds of the present disclosure on the KIF18A target according to the IC50 values by measuring the KIF18A ATPase activity under tubulin stimulation with the presence of the compounds.
# • 1. Preparation of 30 mL of reaction buffer: • (1) 450 μL 1M Tris-HCl (pH=7.5)+300 μL 1M MgCl2+30 μL 10% Pluronic F-68 (ThermoFisher, 24040032-100 ml); • (2) adjusting pH to 7.5, and adding water to adjust the volume to 30 mL. • 2. Preparation of a 5 mg/mL pig microtubule (Microtubules; MT) (Cytoskeleton Inc, MT002) stock solution: • (1) 10 mL PM buffer=150 μL 1 M PIPES (pH 7.0)+20 μL 0.5 mM MgCl2+100 μL 2 mM Taxol (Cytoskeleton Inc, TXD01)+9730 μL water. • (2) MT ([…]): Adding 100 μL PM buffer to prepare a 5 mg/mL stock solution. Keeping the MT (Cytoskeleton Inc, MT002) at room temperature for 10-15 minutes, gently mixing and storing same at −80° C. • 3. Preparation of 2 mL of kinase buffer: 2 mL reaction buffer+1 μL 2 mM Taxol (Cytoskeleton Inc, TXD01)+12 μL 5 mg/mL MT (Cytoskeleton Inc, MT002). • 4. Preparation of 2×KIF18A (30 nM) (ChemPartner, CPB-P22-31645) working solution: 2.4 μL 10 μM KIF18A (ChemPartner, CPB-P22-31645)+800 μL 1× kinase buffer. • 5. Preparation of 2×ATP (150 μM) (Promega, G9101) working solution: 12 μL 10 mM ATP+800 μL 1× kinase buffer. • 6. 25 nL of compound was transferred to a 384-well plate using Echo650. • 7. 2.5 μL of 2×KIF18A from Step 4 (final concentration of 30 nM) was added to the 384-well plate and the plate was incubated at 25° C. for 15 minutes. • 8. 2.5 μL of 2×ATP from Step 5 (final concentration of 150 μM) was added to the 384-well plate and the plate was incubated at 25° C. for 15 minutes. • 9. 5 μL ADP-Glo™ Reagent (Promega, G9101) was added to the 384-well plate and the plate was incubated at 25° C. for 40 minutes. • 10. 10 μL of kinase detection reagent (Promega, G9101) was added to the 384-well plate and the plate was incubated at 25° C. for 40 minutes. • 11. Luminescence values were measured using the EnVision Xcite Multilabel Reader (PerkinElmer, 2105-0020).
pIC50 (OVCAR-3 cells),pIC50 (KIF18A),SMILES
6.30 to 7.30,–,"[2H]C([2H])([2H])OC1c2cc3c(NC(=O)c4ccc(NS(=O)(=O)CCO)cc4N4CCC5(CC4)CC5)cccc3n2CCC1(F)F (single isomer, unassigned) [Compound 385-P1, N-(8,8-difluoro-9-(methoxy-d3)-6,7,8,9-tetrahydropyridino[1,2-a]indol-1-yl)-4-((2-hydroxyethyl)sulfonamido)-2-(6-azaspiro[2.5]oct-6-yl)benzamide]"
≥ 7.30,≥ 7.30,"COc1ccc(NC(=O)c2ccc(NS(=O)(=O)CCO)cc2N2CCC3(CC2)CC3)c2cc3n(c12)CCC(F)(F)C3O (stereo not shown) [Example 482, N-(8,8-difluoro-9-hydroxy-4-methoxy-6,7,8,9-tetrahydropyridino[1,2-a]indol-1-yl)-4-((2-hydroxyethyl)sulfonamido)-2-(6-azaspiro[2.5]oct-6-yl)benzamide]"
6.30 to 7.30,6.30 to 7.30,Cc1ccc(NC(=O)c2ccc(NS(=O)(=O)CCO)cc2N2CCC(=C(F)F)CC2)c2cc3n(c12)CC(C)(C)OC3 [Example 526]
≥ 7.30,6.30 to 7.30,CCNC(=O)c1ccc(NC(=O)c2ccc(NS(=O)(=O)CCO)cc2N2CCC(=C(F)F)CC2)c2cc3n(c12)CC(C)(C)OC3 [Example 528]
6.30 to 7.30,6.30 to 7.30,"CCOc1ccc(NC(=O)c2ccc(NS(=O)(=O)CCO)cc2N2CCC(=C(F)F)CC2)c2cc3n(c12)CC(C)(C)OC3 [Example 536, 2-(4-(difluoromethylene)piperidin-1-yl)-N-(6-ethoxy-3,3-dimethyl-3,4-dihydro-1H-[1,4]oxazino[4,3-a]indol-9-yl)-4-((2-hydroxyethyl)sulfonamido)benzamide]"
< 5.30,6.30 to 7.30,"O=C(Nc1cccc2c1cc1n2CCOC1=O)c1ccc(NS(=O)(=O)CCO)cc1N1CCC2(CC1)CC2 [Example 346, 4-((2-hydroxyethyl)sulfonamido)-N-(1-oxo-3,4-dihydro-1H-[1,4]oxazino[4,3-a]indol-9-yl)-2-(6-azaspiro[2.5]oct-6-yl)benzamide]"
6.30 to 7.30,6.30 to 7.30,"O=C(Nc1cccc2c1cnn2CC1CC1)c1ccc(NS(=O)(=O)CCO)cc1N1CCC2(CC1)CC2 [Example 287, N-(1-(cyclopropylmethyl)-1H-indazol-4-yl)-4-(2-hydroxyethylsulfonamido)-2-(6-azaspiro[2.5]octan-6-yl)benzamide]"
6.30 to 7.30,–,"COC1c2cc3c(NC(=O)c4ccc(NS(=O)(=O)CCO)cc4N4CCC(=C(F)F)CC4)ccc(C#N)c3n2CCC1(F)F (stereo not shown) [Compound 427, N-(4-cyano-8,8-difluoro-9-methoxy-6,7,8,9-tetrahydropyridino[1,2-a]indol-1-yl)-2-(4-(difluoromethylene)piperidin-1-yl)-4-((2-hydroxyethyl)sulfonamide)benzamide]"
6.30 to 7.30,–,"CC1(C)Cn2c(cc3c(NC(=O)c4ccc(NS(=O)(=O)CCO)cc4N4CCC(=C(F)F)CC4)ccc(Cl)c32)CO1 [Example 522, N-(6-chloro-3,3-dimethyl-3,4-dihydro-1H-[1,4]oxazino[4,3-a]indol-9-yl)-2-[4-(difluoromethylene)hexahydropyridin-1-yl]-4-{[(2-hydroxyethyl)sulfonamide]}benzamide]"
–,5.30 to 6.30,O=C(Nc1cccc2c1ccn2CC1(C(F)(F)F)CC1)c1ccc(NS(=O)(=O)CCO)cc1N1CCC2(CC1)CC2 [Example 284]
–,≥ 7.30,"O=C(Nc1ccnc2c1ccn2CC1CC1)c1ccc(NS(=O)(=O)CCO)cc1N1CCC2(CC1)CC2 [Example 33, N-(1-(cyclopropylmethyl)-1H-pyrrolo[2,3-b]pyridin-4-yl)-4-((2-hydroxyethyl)sulfanilamido)-2-(6-azaspiro[2.5]octan-6-yl)4-benzamide]"
–,6.30 to 7.30,"CC1(NS(=O)(=O)c2ccc(C(=O)Nc3cccc4c3ccn4CC3CC3)c(N3CCC4(CC3)CC4)c2)COC1 [Example 44, N-(1-(cyclopropylmethyl)-1H-indol-4-yl)-4-(N-(3-methyloxetan-3-yl)sulfamoyl)-2-(6-azaspiro[2.5]oct-6-yl)benzamide]"
6.30 to 7.30,–,"CC1(C)Cn2c(cc3c(NC(=O)c4cnc(NS(=O)(=O)CCO)cc4N4CCC5(CC4)CC5)cccc32)CO1 [Example 454, N-(3,3-dimethyl-3,4-dihydro-1H-[1,4]oxazino[4,3-a]indol-9-yl)-6-(2-hydroxyethylsulfonamide)-4-(6-azaspiro[2.5]octan-6-yl)nicotinamide]"
–,6.30 to 7.30,"O=C(Nc1cccc2c1CCN2CC1CCC1)c1ccc(NS(=O)(=O)CCO)cc1N1CCC2(CC1)CC2 [Example 14, N-(1-(cyclobutylmethyl)dihydroindol-4-yl)-4-((2-hydroxyethyl)sulfonamido)-2-(6-azaspiro[2.5]octan-6-yl)benzamide]"
–,6.30 to 7.30,CNc1cc(NS(=O)(=O)CCO)cc(N2CCC3(CC2)CC3)c1C(=O)Nc1cccc2c1ccn2CC1CC1 [Example 39]
–,5.30 to 6.30,"CN1CCCCc2c(NC(=O)c3ccc(NS(=O)(=O)CCO)cc3N3CCC4(CC3)CC4)cccc21 [Example 11, 4-((2-hydroxyethyl)sulfonamido)-N-(1-methyl-2,3,4,5-tetrahydro-1H-benzo[b]azepin-6-yl)-2-(6-azaspiro[2.5]octan-6-yl)benzamide]"
–,< 5.30,"O=C(Nc1ccnc(N2CCC(F)(F)CC2)c1)c1ccc(NS(=O)(=O)CCO)cc1OC1CCOCC1 [Example 23, N-(2-(4,4-difluoropiperidin-1-yl)pyridin-4-yl)-4-((2-hydroxyethyl)sulfonamide)-2-((tetrahydro-2H-pyran-4-yl)oxy)benzamide]"
–,6.30 to 7.30,"Cc1cc(NC(=O)c2ccc(NS(=O)(=O)CCO)cc2OC2CC3(CCC3)C2)nc(N2CCC(F)(F)CC2)n1 [Example 26, N-(2-(4,4-difluoropiperidin-1-yl)-6-methylpyrimidin-4-yl)-4-((2-hydroxyethyl)sulfonamido)-2-(spiro[3.3]heptan-2-yloxy)benzamide]"
–,< 5.30,"O=C(Nc1cccc2c1C1(CC1)C(=O)N2CC1CC1)c1ccc(NS(=O)(=O)CCO)cc1N1CCC2(CC1)CC2 [Example 17, N-(1′-(cyclopropylmethyl)-2′-oxospiro[cyclopropane-1,3′-indolin]-4′-yl)-4-((2-hydroxyethyl)sulfonamido)-2-(6-azaspiro[2.5]octan-6-yl)benzamide]"
–,< 5.30,"O=C(Nc1nccc2c1cc1n2CCOC1)c1ccc(NS(=O)(=O)CCO)cc1N1CCC2(CC1)CC2 [Example 306, N-(3,4-dihydro-1H-pyridino[3′,4′:4,5]pyrrolo[2,1-c][1,4]oxazin-9-yl)-4-((2-hydroxyethyl)sulfonamido)-2-(6-azaspiro[2.5]oct-6-yl)benzamide]"
–,< 5.30,"O=C(Nc1cccc2c1CCN2CC1CC1)c1ccc(NS(=O)(=O)CCO)cc1OC1CCC(F)(F)CC1 [Example 29, N-(1-(cyclopropylmethyl)indolin-4-yl)-2-((4,4-difluorocyclohexyl)oxy)-4-((2-hydroxyethyl)sulfonamide)benzamide]"

SMILES,pIC50 (OVCAR-3 cells),pIC50 (KIF18A)
"CN1CCc2c(NC(=O)c3ccc(NS(=O)(=O)CCO)cc3N3CCC4(CC3)CC4)cccc21 [Example 6, 4-(N-(2-hydroxyethyl)sulfonamido)-N-(1-methylindolin-4-yl)-2-(6-azaspiro[2.5]octan-6-yl)benzamide]",–,6.30 to 7.30
